In PubChem BioAssay (NCI):
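Five compound concentrations were applied to cells in 96-well plates for 48 hours; endpoints were derived by simple linear interpolation of the resulting dose-response curve. At the GI50, growth is halved. TGI: total growth inhibition.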

How the values were obtained:
Assay in all cases: NCI-60 cell line screen, 48 h
HL-60(TB) leukemia = test system: HL-60(TB) leukemia
NCI/ADR-RES ovarian = test system: NCI/ADR-RES ovarian
SK-OV-3 ovarian = test system: SK-OV-3 ovarian
SNB-19 CNS = test system: SNB-19 CNS
OVCAR-4 ovarian = test system: OVCAR-4 ovarian
SK-MEL-2 melanoma = test system: SK-MEL-2 melanoma
EKVX NSCLC = test system: EKVX NSCLC
HCT-116 colon = test system: HCT-116 colon
DU-145 prostate = test system: DU-145 prostate
T-47D breast = test system: T-47D breast

Structure (SMILES)	TGI (HL-60(TB) leukemia)	TGI (NCI/ADR-RES ovarian)	TGI (SK-OV-3 ovarian)	TGI (SNB-19 CNS)	TGI (OVCAR-4 ovarian)	TGI (SK-MEL-2 melanoma)	TGI (EKVX NSCLC)	TGI (HCT-116 colon)	GI50 (NCI/ADR-RES ovarian)	GI50 (DU-145 prostate)	TGI (DU-145 prostate)	GI50 (SK-OV-3 ovarian)	GI50 (T-47D breast)	TGI (T-47D breast)	GI50 (SNB-19 CNS)	GI50 (EKVX NSCLC)	GI50 (HCT-116 colon)	GI50 (HL-60(TB) leukemia)	GI50 (OVCAR-4 ovarian)	GI50 (SK-MEL-2 melanoma)
COc1cc2c(cc1OC)C13CCN4CC5=CCOC(CC(=O)O)C(C5CC41)C3N2 (stereo not drawn)	> 100 µM	> 100 µM	> 100 µM	> 100 µM	> 100 µM	> 100 µM	> 100 µM	> 100 µM	–	–	–	–	–	–	–	–	–	–	–	–
Cc1ccc(S(=O)(=O)N(C)C)cc1[N+](=O)[O-]	–	> 100 µM	> 100 µM	> 100 µM	–	–	> 100 µM	> 100 µM	> 100 µM	> 100 µM	> 100 µM	> 100 µM	> 100 µM	> 100 µM	> 100 µM	> 100 µM	> 100 µM	–	–	–
COc1ccc(-c2nc(-c3nc4ccc(F)cc4[nH]3)cc3c2[nH]c2ccccc23)cc1	7.23 µM	> 100 µM	> 100 µM	> 100 µM	> 100 µM	4.45 µM	–	8.25 µM	2.77 µM	2.99 µM	9.65 µM	4 µM	2.56 µM	> 100 µM	2.94 µM	–	2.69 µM	2.83 µM	5.1 µM	2.11 µM
Nc1nc2ncn(CCO)c2c(=O)[nH]1	> 100 µM	–	> 100 µM	> 100 µM	–	> 100 µM	> 100 µM	> 100 µM	–	–	–	–	–	–	–	–	–	–	–	–
COc1cc(OC)cc(N2CCC(c3c(N)nc(N)nc3Cl)CC2)c1	> 100 µM	–	> 100 µM	> 100 µM	> 100 µM	> 100 µM	> 100 µM	–	–	–	–	–	–	–	–	–	–	–	–	–
COc1ccc(CC(=O)c2cc(OC)c(OC)cc2C)cc1OC	–	–	> 100 µM	> 100 µM	> 100 µM	> 100 µM	> 100 µM	–	–	–	–	–	–	–	–	–	–	–	–	–
CO/N=C(\c1ccccc1)c1cnn(-c2ccccc2)c1N	> 25 µM	> 25 µM	> 25 µM	> 25 µM	> 25 µM	> 25 µM	–	> 25 µM	> 25 µM	> 25 µM	> 25 µM	> 25 µM	> 25 µM	> 25 µM	> 25 µM	–	> 25 µM	> 25 µM	> 25 µM	> 25 µM
CC(C)(C)c1nc2c(o1)C(=Nc1ccccc1)c1ccccc1C2=O	16.6 µM	–	63.4 µM	27.5 µM	10.2 µM	6.99 µM	41 µM	12.8 µM	–	–	–	–	–	–	–	–	–	–	–	–
CC(=O)[CH-]C(=O)c1ccccc1.CC(=O)[CH-]C(=O)c1ccccc1.[Nd+3].[OH-].[OH3+]	> 100 µM	–	> 100 µM	> 100 µM	> 100 µM	> 100 µM	–	> 100 µM	–	–	–	> 100 µM	–	–	> 100 µM	–	> 100 µM	> 100 µM	> 100 µM	> 100 µM
Cc1c(Cl)ccc2c1NC(=O)C2(O)CC(=O)c1ccc(Cl)cc1Cl (stereo not drawn)	–	> 50 µM	> 50 µM	> 50 µM	> 50 µM	> 50 µM	> 50 µM	> 50 µM	–	–	> 50 µM	–	–	> 50 µM	–	–	–	–	–	–
